Data on 22 compounds can be found in patent publication US8846704B2, “Thiopyrimidine-based compounds and uses thereof” (YM Biosciences Austraila Pty Ltd, priority 2007, dated 2014).

Each structure is given as a SMILES string. Some results are limits rather than exact numbers.

The assay deals with T1, human JAK2 (Homo sapiens, UniProt O60674).
T1 construct: The kinase domain of human JAK2 was amplified; GST (N); made in house; host or cells: Sf9 insect cells (baculovirus)
In words: Alphascreen tyrosine kinase enzyme assay, JAK2 kinase domain. As to conditions: read-out: JAK2 IC50_nM. It counts as biochemical. In outline: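 JAK2 kinase domain expressed in baculovirus/Sf9 and glutathione-affinity purified. Compounds (final […]) pre-incubated 20 min with enzyme in 10 mM HEPES pH 7.5, MgCl2, NaCl, vanadate, 0.1% Tween 20.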
(Bead proximity is the source of the signal in Alpha formats.)

T1 sequence (O60674 849-1124 limits assumed): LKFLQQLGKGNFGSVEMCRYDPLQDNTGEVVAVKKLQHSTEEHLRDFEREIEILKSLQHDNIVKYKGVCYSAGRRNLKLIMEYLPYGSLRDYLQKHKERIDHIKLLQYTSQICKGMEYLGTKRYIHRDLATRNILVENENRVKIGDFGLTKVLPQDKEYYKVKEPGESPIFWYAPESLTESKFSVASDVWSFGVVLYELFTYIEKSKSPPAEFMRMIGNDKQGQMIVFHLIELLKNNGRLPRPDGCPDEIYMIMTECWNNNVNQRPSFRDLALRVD

In the case of `C=CC(=O)Nc1cccc(Nc2nccc(SC)n2)c1` [Compound 7, N-(3-(4-(methylthio)pyrimidin-2-ylao)phenyl)acrylamide], the IC50 was greater than 1000 nM.

Regarding `Cc1cnc(Nc2ccc(N3CCOCC3)cc2)nc1Sc1ccc(N2C(=O)COCC2=O)cc1` [Compound 190, 4-(4-(5-methyl-2-(4-morpholinophenylao)pyrimidin-4-ylthio)phenyl)morpholine-3,5-dione], the IC50 is less than 500 nM.

Turning to `Cc1cnc(Nc2ccc(O)cc2)nc1Sc1ccc(N)cc1` [Compound 191, 4-(4-(4-aophenylthio)-5-methylpyrimidin-2-ylao)phenol], the IC50 is greater than 1000 nM.

For `Cc1cnc(Nc2cccc(S)c2)nc1Sc1ccc(NC(=O)CCl)cc1` [Compound 195, 2-chloro-N-(4-(2-(3-mercaptophenylao)-5-methylpyrimidin-4-ylthio)phenyl)acetamide], the IC50 is greater than 1000 nM.

As for `Cc1cnc(Nc2ccc(N3CCOCC3)cc2)nc1Sc1ccc(N2CCSCC2=O)cc1` [Compound 197, 4-(4-(5-methyl-2-(4-morpholinophenylao)pyrimidin-4-ylthio)phenyl)thiomorpholin-3-one], the IC50 was greater than 1000 nM.

Take `N#Cc1c(N)ncn1Cc1cccc(Sc2ccnc(Nc3ccc(N4CCOCC4)cc3)n2)c1` [Compound 199, 4-ao-1-(3-(2-(4-morpholinophenylao)pyrimidin-4-ylthio)benzyl)-1H-imiazole-5-carbonitrile]: the IC50 was less than 1000 nM.

On to `N#Cc1ncn(Cc2ccc(Sc3ccnc(Nc4ccc(N5CCOCC5)cc4)n3)cc2)c1N` [Compound 202, 5-ao-1-(4-(2-(4-morpholinophenylao)pyrimidin-4-ylthio)benzyl)-1H-imidazole-4-carbonitrile], for which the IC50 is less than 1000 nM.

As to `N#Cc1c(N)ncn1Cc1ccc(Sc2ccnc(Nc3ccc(N4CCOCC4)cc3)n2)cc1` [Compound 203, 4-ao-1-(4-(2-(4-morpholinophenylao)pyrimidin-4-ylthio)benzyl)-1H-imidazole-5-carbonitrile], the IC50 was less than 1000 nM.

`c1cc(Sc2ccc(Cn3cncn3)cc2)nc(Nc2ccc(N3CCOCC3)cc2)n1` [Compound 204, 4-(4-((1H-1,2,4-triazol-1-yl)methyl)phenylthio)-N-(4-morpholinophenyl)pyrimidin-2-ae]: the IC50 was less than 1000 nM.

Consider `NC(=O)c1ccc(Sc2ccnc(Nc3ccc(N4CCOCC4)cc3)n2)cc1` [Compound 207, 4-(2-(4-morpholinophenylao)pyrimidin-4-ylthio)benzamide], for which the IC50 is greater than 1000 nM.

With `N#CCc1ccc(Sc2ccnc(Nc3ccc(N4CCOCC4)cc3)n2)cc1` [Compound 210, 2-(4-(2-(4-morpholinophenylao)pyrimidin-4-ylthio)phenyl)acetonitrile], the IC50 is greater than 1000 nM.

Turning to `Cc1cnc(Nc2ccc(N3CCOCC3)cc2)nc1Sc1cccc(CO)c1` [Compound 212, (3-(5-methyl-2-(4-morpholinophenylao)pyrimidin-4-ylthio)phenyl)methanol], the IC50 was less than 500 nM.

As to `CON(C)C(=O)c1ccc(Sc2nc(Nc3ccc(N4CCOCC4)cc3)ncc2C)cc1` [Compound 218, N-methoxy-N-methyl-4-(5-methyl-2-(4-morpholinophenylao)pyrimidin-4-ylthio)benzamide], the IC50 was greater than 1000 nM.

With `Cc1cnc(Nc2ccc(N3CCOCC3)cc2)nc1Sc1ccc(C=O)cc1` [Compound 219, 4-(5-methyl-2-(4-morpholinophenylao)pyrimidin-4-ylthio)benzaldehyde], the IC50 is greater than 1000 nM.

As for `Cc1cnc(Nc2ccc(N3CCOCC3)cc2)nc1Sc1ccc(CO)cc1` [Compound 220, (4-(5-methyl-2-(4-morpholinophenylao)pyrimidin-4-ylthio)phenyl)methanol], the IC50 is less than 500 nM.

For `Cc1cnc(Nc2ccc(N3CCOCC3)cc2)nc1Sc1ccc(CC#N)cc1` [Compound 222, 2-(4-(5-methyl-2-(4-morpholinophenylao)pyrimidin-4-ylthio)phenyl)acetonitrile], the IC50 is greater than 1000 nM.

With `Cc1cnc(Nc2ccc(N3CCOCC3)cc2)nc1Sc1ccc(C(C#N)N2CCOCC2)cc1` (stereo not shown) [Compound 223, 2-(4-(5-methyl-2-(4-morpholinophenylao)pyrimidin-4-ylthio)phenyl)-2-morpholinoacetonitrile], the IC50 is greater than 1000 nM.

For the compound `Cc1cnc(Nc2ccc(N3CCOCC3)cc2)nc1Sc1ccc(C(=O)N2CCCC2)cc1` [Compound 224, (4-(5-methyl-2-(4-morpholinophenylao)pyrimidin-4-ylthio)phenyl)(pyrrolidin-1-yl)methanone], the IC50 was less than 1000 nM.

Consider `Cc1cnc(Nc2ccc(N3CCOCC3)cc2)nc1Sc1ccc(C(C#N)N2CCN(C)CC2)cc1` (stereo not shown) [Compound 225, 2-(4-(5-methyl-2-(4-morpholinophenylao)pyrimidin-4-ylthio)phenyl)-2-(4-methylpiperazin-1-yl)acetonitrile], for which the IC50 is greater than 1000 nM.

On to `Cc1cnc(Nc2cccc(NS(C)(=O)=O)c2)nc1Sc1ccc(CO)cc1` [Compound 226, N-(3-(4-(4-(hydroxymethyl)phenylthio)-5-methylpyrimidin-2-ylao)phenyl)methanesulfonamide], for which the IC50 is greater than 1000 nM.

As for `Cc1cnc(Nc2ccc(N3CCOCC3)cc2)nc1Sc1ccc(NC2CCOC2=O)cc1` (stereo not shown) [Compound 228, 3-(4-(5-methyl-2-(4-morpholinophenylao)pyrimidin-4-ylthio)phenylao)dihydrofuran-2(3H)-one], the IC50 was greater than 1000 nM.

For the compound `Cc1cnc(Nc2ccc(N3CCOCC3)cc2)nc1Sc1ccc(NC(=O)CO)cc1` [Compound 229, 2-hydroxy-N-(4-(5-methyl-2-(4-morpholinophenylao)pyrimidin-4-ylthio)phenyl)acetamide], the IC50 is less than 1000 nM.
